{
  "source": "ChEMBL document CHEMBL1240338",
  "about": "“BIBF 1120: triple angiokinase inhibitor with sustained receptor blockade and good antitumor efficacy” (Cancer Res, 2008)",
  "key": {"[1]": {"molecular_target": "Cyclin-dependent kinase 2 (Homo sapiens, UniProt P24941)", "assay": "Inhibition of human CDK2"}, "HUVEC [2]": {"system": "HUVEC", "assay": "Antiangiogenic activity in HUVEC assessed as inhibition of VEGF-induced cell proliferation by [3H]thymidine incorporation assay", "assay_type": "functional, cell-based", "details": "Homo sapiens"}, "HUVEC [3]": {"system": "HUVEC", "assay": "Antiangiogenic activity in HUVEC assessed as inhibition of bFGF-induced cell proliferation by [3H]thymidine incorporation assay", "assay_type": "functional, cell-based", "details": "Homo sapiens"}, "[4]": {"assay": "Antiangiogenic activity in HSMEC assessed as inhibition of VEGF-induced cell proliferation by [3H]thymidine incorporation assay", "assay_type": "functional", "details": "Homo sapiens"}, "[5]": {"assay": "Antiangiogenic activity in BRP assessed as inhibition of PDGF BB-induced cell proliferation by [3H]thymidine incorporation assay", "assay_type": "functional", "details": "Bos taurus"}, "[6]": {"assay": "Antiangiogenic activity in HUASMC assessed as inhibition of PDGF BB-induced cell proliferation by [3H]thymidine incorporation assay", "assay_type": "functional", "details": "Homo sapiens"}, "FaDu [7]": {"system": "FaDu", "assay": "Antiangiogenic activity in human FADU assessed as inhibition of cell proliferation by [3H]thymidine incorporation assay in presence of fetal calf serum", "assay_type": "functional, cell-based"}, "Calu-6": {"system": "Calu-6", "assay": "Antiangiogenic activity in human Calu6 assessed as inhibition of cell proliferation by [3H]thymidine incorporation assay in presence of fetal calf serum", "assay_type": "functional, cell-based"}, "HeLa": {"system": "HeLa", "assay": "Antiangiogenic activity in human HeLa assessed as inhibition of cell proliferation by [3H]thymidine incorporation assay in presence of fetal calf serum", "assay_type": "functional, cell-based"}, "HUVEC [8]": {"system": "HUVEC", "assay": "Antiangiogenic activity in HUVEC assessed as inhibition of VEGF-induced apoptosis by [3H]thymidine incorporation assay", "assay_type": "functional, cell-based", "details": "Homo sapiens"}, "[9]": {"assay": "Antiangiogenic activity in HSMEC assessed as inhibition of VEGF-induced apoptosis by [3H]thymidine incorporation assay", "assay_type": "functional, Homo sapiens"}, "HUVEC [10]": {"system": "HUVEC", "assay": "Induction of apoptosis in HUVEC at 50 nM by TUNEL assay (reference value: 2%)", "assay_type": "cell-based", "details": "human, 0.05 µM"}, "Mus musculus [11]": {"system": "Mus musculus", "assay": "Toxicity in human FADU cells xenografted in NMRI nu/nu mouse assessed mortality at 100 mg/kg, po qd for 5 days", "assay_type": "organism-based", "parameters": "dose 100 mg/kg, route oral", "details": "in vivo, 120 h"}, "Mus musculus [12]": {"system": "Mus musculus", "assay": "Toxicity in human FADU cells xenografted in NMRI nu/nu mouse assessed weight loss at 100 mg/kg, po qd for 5 days", "assay_type": "organism-based", "parameters": "dose 100 mg/kg, route oral", "details": "in vivo, 120 h"}, "FaDu [13]": {"system": "FaDu", "assay": "Antitumor activity against human FADU cells xenografted in NMRI nu/nu mouse assessed as inhibition of tumor growth at 50 mg/kg, po qd for 2 days relative to control", "assay_type": "functional"}, "[14]": {"assay": "Plasma concentration in NMRI nu/nu mouse at 50 mg/kg, po after 1 hr", "assay_type": "ADME, organism-based", "parameters": "dose 50 mg/kg, route oral"}, "[15]": {"assay": "Trough plasma concentration in NMRI nu/nu mouse at 50 mg/kg, po after 24 hrs", "assay_type": "ADME, organism-based", "parameters": "dose 50 mg/kg, route oral"}, "FaDu [16]": {"system": "FaDu", "assay": "Antitumor activity against human FADU cells xenografted in NMRI nu/nu mouse assessed as tumor growth at 50 mg/kg, po qd for 5 days relative to control"}, "FaDu [17]": {"system": "FaDu", "assay": "Antitumor activity against human FADU cells xenografted in NMRI nu/nu mouse assessed as tumor growth at 25 mg/kg, po qd for 5 days relative to control"}, "FaDu [18]": {"system": "FaDu", "assay": "Antitumor activity against human FADU cells xenografted in NMRI nu/nu mouse assessed as tumor growth at 10 mg/kg, po qd for 5 days relative to control"}, "FaDu [19]": {"system": "FaDu", "assay": "Antitumor activity against human FADU cells xenografted in NMRI nu/nu mouse assessed as tumor growth at 100 mg/kg, po qd for 5 days relative to control"}, "CAKI-1 [20]": {"system": "CAKI-1", "assay": "Antitumor activity against human Caki1 cells xenografted in NMRI nu/nu mouse assessed as tumor growth at 50 mg/kg, po qd for 5 days relative to control"}, "CAKI-1 [21]": {"system": "CAKI-1", "assay": "Antitumor activity against human Caki1 cells xenografted in NMRI nu/nu mouse assessed as tumor growth at 10 mg/kg, po qd for 5 days relative to control"}, "CAKI-1 [22]": {"system": "CAKI-1", "assay": "Antitumor activity against human Caki1 cells xenografted in NMRI nu/nu mouse assessed as tumor growth at 100 mg/kg, po qd for 5 days relative to control"}, "[23]": {"assay": "Antitumor activity against rat GS-9L cells implanted in syngeneic F344 Fischer rat assessed as inhibition of tumor growth at 50 mg/kg, po qd for 5 days relative to control"}, "[24]": {"assay": "Antitumor activity against rat GS-9L cells implanted in syngeneic F344 Fischer rat assessed as inhibition of tumor growth at 25 mg/kg, po qd for 5 days relative to control"}, "[25]": {"assay": "Antitumor activity against rat GS-9L cells implanted in syngeneic F344 Fischer rat assessed as inhibition of tumor growth at 10 mg/kg, po qd for 5 days relative to control"}, "FaDu [26]": {"system": "FaDu", "assay": "Antitumor activity against human FADU cells xenografted in NMRI nu/nu mouse assessed as reduction of tumor vessel density at 100 mg/kg, po qd for 5 days by Meca 32 immunohistochemistry image analysis relative to control", "parameters": "scale not given: the % may be the effect or the level left"}, "FaDu [27]": {"system": "FaDu", "assay": "Antitumor activity against human FADU cells xenografted in NMRI nu/nu mouse assessed as reduction of PDGFR-beta-positive mural cells at 100 mg/kg, po qd for 5 days by PDGFR-beta immunohistochemistry image analysis relative to control", "parameters": "scale not given: the % may be the effect or the level left"}},
  "data": [
    {"smiles": "COC(=O)c1ccc2c(c1)NC(=O)/C2=C(\\Nc1ccc(N(C)C(=O)CN2CCN(C)CC2)cc1)c1ccccc1", "note": "[NINTEDANIB]", "values": [
      {"measurement": "IC50", "setting": "[1]", "value": "> 10000", "unit": "nM"},
      {"measurement": "EC50", "setting": "HUVEC [2]", "value": 9, "unit": "nM"},
      {"measurement": "EC50", "setting": "HUVEC [3]", "value": 290, "unit": "nM"},
      {"measurement": "EC50", "setting": "[4]", "value": 7, "unit": "nM"},
      {"measurement": "EC50", "setting": "[5]", "value": 79, "unit": "nM"},
      {"measurement": "EC50", "setting": "[6]", "value": 69, "unit": "nM"},
      {"measurement": "EC50", "setting": "FaDu [7]", "value": "> 4500", "unit": "nM"},
      {"measurement": "EC50", "setting": "Calu-6", "value": "> 3500", "unit": "nM"},
      {"measurement": "EC50", "setting": "HeLa", "value": "> 3500", "unit": "nM"},
      {"measurement": "EC50", "setting": "HUVEC [8]", "value": "< 10", "unit": "nM"},
      {"measurement": "EC50", "setting": "[9]", "value": "< 10", "unit": "nM"},
      {"measurement": "Activity", "setting": "HUVEC [10]", "value": 28, "unit": "%"},
      {"measurement": "Activity", "setting": "Mus musculus [11]", "value": "Non-toxic"},
      {"measurement": "Activity", "setting": "Mus musculus [12]", "value": "Non-toxic"},
      {"measurement": "T/C", "setting": "FaDu [13]", "value": 15, "unit": "%"},
      {"measurement": "concentration at 1 h", "setting": "[14]", "value": 1000, "unit": "nM"},
      {"measurement": "concentration at 24 h", "setting": "[15]", "value": "< 8", "unit": "nM"},
      {"measurement": "T/C", "setting": "FaDu [16]", "value": 27, "unit": "%"},
      {"measurement": "T/C", "setting": "FaDu [17]", "value": 46, "unit": "%"},
      {"measurement": "T/C", "setting": "FaDu [18]", "value": 82, "unit": "%"},
      {"measurement": "T/C", "setting": "FaDu [19]", "value": 11, "unit": "%"},
      {"measurement": "T/C", "setting": "CAKI-1 [20]", "value": 25, "unit": "%"},
      {"measurement": "T/C", "setting": "CAKI-1 [21]", "value": 71, "unit": "%"},
      {"measurement": "T/C", "setting": "CAKI-1 [22]", "value": 16, "unit": "%"},
      {"measurement": "T/C", "setting": "[23]", "value": 30, "unit": "%"},
      {"measurement": "T/C", "setting": "[24]", "value": 45, "unit": "%"},
      {"measurement": "T/C", "setting": "[25]", "value": 74, "unit": "%"},
      {"measurement": "Activity", "setting": "FaDu [26]", "value": 76, "unit": "%"},
      {"measurement": "Activity", "setting": "FaDu [27]", "value": 64, "unit": "%"}
    ]}
  ]
}
